Assay results taken from patent US12304931B2, “MENTSH analogs as therapeutics for diabetes, obesity, and their associated diseases and complications” (University of Southern California, priority 2016, dated 2025).
Ends that are not written are not given here.

Experiment: Pharmacokinetics of injected peptide in mice (ELISA)
Assay type: in vivo
Details: ELISA detection
Source text: FIG. 19. Detection of MENTSH mRNA and peptide and pharmacokinetics of injected peptide in mice. Northern blot hybridization identified the presence of MENTSH transcript in mitochondrial mRNA.
Northern blot hybridization identified the presence of MENTSH transcript in mitochondrial mRNA (FIG. 19). Further, the Inventors developed an ELISA assay for detection of MENTSH. […] Increasing persistent bioavailability of MENTSH by analogs, or other artificial modifications may further improve biological effects for therapeutic use.

MKPNPATQNLSMLLNYPH [MENTSH, MKPNPATQNLSMLLNYPH]
persistence of injected peptide: ~1 h
